# Laboratory results taken from ChEMBL document CHEMBL1131275, “Synthesis and structure-activity relationships of CP-122,721, a second-generation NK-1 receptor antagonist” (Bioorg Med Chem Lett, 1998).
# How the values were obtained:
# Cavia porcellus [1] = species on record: Cavia porcellus; test: Compound tested for SP-induced plasma extravasation in guinea pig perorally; type: functional; details: po, read-out: ID50 (the source's name)
# Cavia porcellus [2] = species on record: Cavia porcellus; test: Inhibition of aerosolized capsaicin-induced plasma protein extravasation in guinea pig lung by peroral dose; type: functional; details: read-out: ID50 (the source's name)
# Cavia porcellus [3] = species on record: Cavia porcellus; test: Inhibition of capsaicin-induced plasma extravasation in guinea pig ureter by peroral dose; type: functional; details: po, read-out: ID50 (the source's name)
# Cavia porcellus [4] = test: Compound was tested for blockade of locomotor activity in guinea pig, elicited by icv administered Sar9Met(O2)-SP; type: functional; details: central, read-out: ID50 (the source's name)
# Cavia porcellus [5] = species on record: Cavia porcellus; test: Compound tested for blockade of cisplatin-induced emesis in guinea pig perorally; type: functional; details: po, read-out: ID50 (the source's name)
# Substance-P receptor = Substance-P receptor (Homo sapiens, UniProt P25103); test: Antagonist activity for Tachykinin receptor 1 as displacement of [3H]-Substance P in human IM-9 cells; type: functional, cell-based
# Chain of Substance-P receptor (P25103 whole entry): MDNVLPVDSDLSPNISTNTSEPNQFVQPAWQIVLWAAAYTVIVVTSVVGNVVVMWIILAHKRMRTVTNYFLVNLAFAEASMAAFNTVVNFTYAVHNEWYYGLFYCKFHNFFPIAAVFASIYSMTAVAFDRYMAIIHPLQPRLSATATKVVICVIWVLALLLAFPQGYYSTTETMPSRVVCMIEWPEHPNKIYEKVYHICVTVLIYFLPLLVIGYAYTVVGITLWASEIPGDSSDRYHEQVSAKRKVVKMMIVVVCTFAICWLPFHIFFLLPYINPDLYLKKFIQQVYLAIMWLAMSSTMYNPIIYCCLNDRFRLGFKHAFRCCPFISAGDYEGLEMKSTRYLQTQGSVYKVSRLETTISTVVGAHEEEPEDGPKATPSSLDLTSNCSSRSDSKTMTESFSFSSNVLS
# Cavia porcellus [6] = species on record: Cavia porcellus; test: Inhibition of aerosolized capsaicin-induced plasma protein extravasation in guinea pig ureter by peroral dose; type: functional; details: read-out: ID50 (the source's name)
# Cavia porcellus [7] = test: Compound was tested for blockade of locomotor activity in the guinea pig elicited by icv administered Sar9Met(O2)-SP; type: functional; details: central, read-out: ID50 (the source's name)
IC50 (Substance-P receptor) [nM],Compound,other results
0.18,CC(C)Oc1ccc(OC(F)(F)F)cc1CN[C@H]1CCCN[C@H]1c1ccccc1,–
0.11,COc1ccc(N(C)S(C)(=O)=O)cc1CN[C@H]1CCCN[C@H]1c1ccccc1,–
0.14,COc1ccc(Cl)cc1CN[C@H]1CCCN[C@H]1c1ccccc1,–
0.09,COc1ccc(OC)c(CN[C@H]2CCCN[C@H]2c2ccccc2)c1,–
0.46,CC(C)Oc1ccccc1CN[C@H]1CCCN[C@H]1c1ccccc1,–
0.56,COc1ccc(N(C)C)cc1CN[C@H]1CCCN[C@H]1c1ccccc1,–

# Second part, the compound before the results:
Compound,IC50 (Substance-P receptor) [nM],other results
COc1ccc(OC(F)(F)F)cc1CN[C@H]1CCCN[C@H]1c1ccccc1,–,ED50 (Cavia porcellus [1]): 0.05 mg/kg; ED50 (Cavia porcellus [2]): 0.01 mg/kg; ED50 (Cavia porcellus [3]): 0.02 mg/kg; ED50 (Cavia porcellus [4]): 0.01 mg/kg; ED50 (Cavia porcellus [5]): 0.08 mg/kg
FC(F)(F)Oc1ccccc1CN[C@H]1CCCN[C@H]1c1ccccc1,0.8,–
Oc1ccc(OC(F)(F)F)cc1CN[C@H]1CCCN[C@H]1c1ccccc1,10.9,–
CCOc1ccc(OC(F)(F)F)cc1CN[C@H]1CCCN[C@H]1c1ccccc1,0.14,–
FC(F)Oc1ccccc1CN[C@H]1CCCN[C@H]1c1ccccc1,0.41,–
COc1ccccc1CN[C@H]1CCCN[C@H]1c1ccccc1 [CP-99994],–,ED50 (Cavia porcellus [1]): 31 mg/kg; ED50 (Cavia porcellus [2]): 5 mg/kg; ED50 (Cavia porcellus [6]): 2.9 mg/kg; ED50 (Cavia porcellus [7]): 0.6 mg/kg
